In one data set the test system is Anas platyrhynchos. The following applies: oral, mortality.
In the next data set the test system is Apis mellifera. The note with it: acute; duration: 48 hours; oral; unspecified; mortality.
The test system of another data set is Canidae. The note with it: subchronic; duration: 90 days; oral; Dog Other; histopathology: nonneoplastic.
Another data set deals with Colinus virginianus. The following applies: for NOEL: reproduction developmental.
The test system of another data set is Daphnia magna. The note with it: chronic/long-term; duration: 21 days.
The subject of a further data set is Oncorhynchus mykiss. The following applies: acute; duration: 96 hours; mortality.
The subject of a further data set is Oryctolagus sp. The following applies: reproduction developmental; body weight.
The subject of the next data set is Pimephales promelas. The note with it: chronic/long-term; duration: 36 days; development.
The subject of another data set is Tagia sp. The note with it: acute; duration: 14 days; mortality.
In data set [1] the test system is Typhlodromus pyri. The note with it: not reported; F; reproduction.
For data set [2], the system named is Typhlodromus pyri. Description: LR50; higher = less toxic. The following applies: not reported; mortality.

The record followed here is EPA's ToxValDB 9.5 (doi:10.2903/j.efsa.2009.343r).

For `COc1cnc(OC)n2nc(NS(=O)(=O)c3c(OCC(F)F)cccc3C(F)(F)F)nc12` [Penoxsulam], the LD50 is above 2000 mg/kg-day with Anas platyrhynchos (acute, unspecified); above 100 µg/piece in the data set on Apis mellifera; above 5000 mg/kg-day in the data set on Rattus norvegicus (acute, oral, mortality). Moreover, the LC50 in the data set on Anas platyrhynchos (short-term, duration: 8 days, feed) is above 1120 mg/kg-day; with Colinus virginianus (acute, duration: 8 days, oral, diet, mortality), above 804 mg/kg-day; in the data set on Oncorhynchus mykiss it was above 100 mg/L; in the data set with Tagia sp., above 1000 mg/kg. The NOAEL is 18 mg/kg-day with Canidae; 25 mg/kg-day in the data set with Oryctolagus sp.; 5 mg/kg-day in the data set on Rattus norvegicus (chronic, duration: 2 years, histopathology: nonneoplastic); 100 mg/kg-day with Rattus norvegicus (reproduction developmental, body weight); 300 mg/kg-day in the data set on Rattus norvegicus (reproduction developmental, reproduction). Besides, the NOEL was 80.1 mg/kg-day in the data set with Colinus virginianus (F) and 82.5 mg/kg-day in the data set with Colinus virginianus (M). For the same molecule, the NOEC is 3.33 mg/L in the data set on Daphnia magna and 10 mg/L in the data set on Pimephales promelas. The same molecule yielded an LEL with Typhlodromus pyri [1] of 4 g/ha. Further, the LR50 with Typhlodromus pyri [2] was determined as 7.46 g/ha.

Usually NOAEL stands for the highest tested level that showed no adverse finding.
